Series [1] deals with herpes simplex virus type 1 (HSV-1). The series can be described thus: Anti-HSV activity, inhibition of virus-induced cytopathic effect in Vero cells. The class given is cell-based. The conditions noted are these: HSV-1 KOS strain, 72 hours at 37°C, 50% inhibition of cytopathic effect. How it is done:
(§1) The in vitro antiviral activity of BU-4628V was assessed against the herpes simplex virus type 1 (HSV-1) using the KOS strain. The assay was done according to the reported protocol of C. McLaren et al. in Antiviral Research, 3, 223-234, (1986) with minor modification. Briefly, 50 µl of Eagle's MEM medium containing BU-4628V and then 200 µl of the Vero cell suspension (2 X 10⁴ cells/200 µl) were added to a well of a 96-well microtiter plate. To the well, 50µl of medium containing approximately 30 times of the 50% tissue culture infectious dose (50% TCID) of virus was added. In a parallel experiment, the same set of cells without virus infection was prepared, which was for the determination of cytotoxicity of the sample. After 72 hours incubation at 37°C, the inhibition degree of virus-induced cytopathic effect and cytotoxicity by the sample were determined, respectively. The ID₅₀ is expressed as the concentration of a compound showing 50% growth inhibition of the cytopathic effect and the TD₅₀ as the concentration of a compound showing 50% growth inhibition of the cells in the absence of virus. Acyclovir was used as the reference compound for anti-HSV activity in the assay.
In general terms: Damage to the host cells serves as the signal in cytopathic effect assays.

The subject of a further series is Vero cell. The experiment in a line: Cytotoxicity in Vero cells without virus infection. It is filed as cell-based. The conditions noted are these: Vero cells in the absence of virus, 72 hours at 37°C; 50% growth inhibition. How it is done:
as §1

Another series has as its system HIV-1 IIIb. The experiment in a line: Anti-HIV activity, XTT assay in CEM-SS cells. It is filed as cell-based, human immunodeficiency virus. The settings on record: HIV-1 IIIb strain, read-out: IC₅₀. (Tetrazolium dyes change colour on reduction, which living cells bring about.)
A short description of the next series: Solubility in solvents. It is filed as physicochemical. An excerpt: The antiviral antibiotic BU-4628V was isolated as a white amorphous powder.
The nature of series [2]: Cytotoxicity in Vero cells without virus infection. The class given is cell-based. The conditions noted are these: Vero cells in the absence of virus, 72 hours at 37°C, 50% growth inhibition, read-out: TD₅₀. How it is done: as §1
Another series relates to HIV-2 CBL-20. The series can be described thus: Anti-HIV activity, XTT assay in CEM-SS cells. The class given is cell-based, human immunodeficiency virus. The conditions noted are these: HIV-2 CBL-20 strain, read-out: IC₅₀.
The next series concerns HIV-1 RF. The experiment in a line: Anti-HIV activity, XTT assay in CEM-SS cells. It is filed as cell-based, human immunodeficiency virus. The conditions noted are these: HIV-1 RF strain, read-out: IC₅₀.
The next series has as its system S. typhi 901. The class given is cell-based. The conditions noted are these: 901, 18 h, pH 7.
Series [3] deals with CEM-SS cells. The series can be described thus: Cytotoxicity in CEM-SS cells (XTT assay). The settings on record: result in words. The class given is cell-based.
Description: (§2) The antiviral effect is expressed as the inhibitory concentration of a compound which reduces the number of viruses of the infected culture to 50% of that of the drug - untreated, control culture (IC₅₀). The cytotoxicity is expressed as the concentration of a compound which yields 50% of the number of viable cells of the untreated control cultures (IC₅₀).
Series [4] in a line: Cytotoxicity in CEM-SS cells (XTT assay). It is filed as cell-based. The settings on record: human, concentration yielding 50% of viable cells of untreated control, read-out: cytotoxicity IC₅₀.
Description: as §2
For series [5], the system named is CEM-SS cells.
Description: as §2
The test system of series [6] is human immunodeficiency virus. The series can be described thus: Anti-HIV activity, XTT assay in CEM-SS cells (strain not stated). The class given is cell-based. The conditions noted are these: Human immunodeficiency virus 1, read-out: IC₅₀.

Consider three compounds from patent publication EP0603030A2, “Antiviral antibiotic BU-4628V and preparation thereof” (Bristol-Myers Squibb Company, priority 1992, dated 1994).

One may read the MIC as the smallest concentration in the dilution series that meets the test's criterion for growth inhibition. Lower therefore signals a more susceptible organism.

Read-outs that look alike come from different tables or passages of the source. Positions of bridges follow the written chain, without caps; N, C: chain ends. Residues, ends and D or L forms follow the SMILES beside them.

Description for HIV-1 IIIb: as §2
Description for HIV-1 RF: as §2
Description for HIV-2 CBL-20: The antiviral effect is expressed as the inhibitory concentration of a compound which reduces the number of viruses of the infected culture to 50% of that of the drug - untreated, control culture (IC₅₀).

Compound `Nc1nc2c(ncn2COCCO)c(=O)[nH]1` [Acyclovir] gave an ID₅₀ in series [1] of 0.23 µg/mL. Further, the TD₅₀ in the series with Vero cell is >100 µg/mL.

Consider `CC[C@H](C)[C@@H]1NC(=O)CNC(=O)[C@H](CC(C)C)NC(=O)[C@@H]2CSSC[C@@H]3NC(=O)CNC(=O)[C@H](C)NC(=O)[C@H](Cc4ccccc4)NC(=O)[C@H](CC(=O)N2)NC(=O)[C@H](CC(N)=O)NC(=O)[C@H](CSSC[C@@H](C(=O)N[C@@H](Cc2ccccc2)C(=O)N[C@@H](Cc2c[nH]c4ccccc24)C(=O)O)NC(=O)[C@H](C(C)C)NC(=O)[C@H]([C@@H](C)CC)NC(=O)[C@H](C)NC(=O)[C@H](Cc2ccc(O)cc2)NC(=O)CNC3=O)NC(=O)[C@H](CO)NC(=O)CNC1=O` [BU-4628V] (CLGIGSCNDFAGCGYAIVCFW-OH; disulfide 1-13, 7-19; lactam N-9; C-terminus assumed), for which, in series [1], the ID₅₀ turned out to be 27 µg/mL. The figures for the IC50 with HIV-1 IIIb, with HIV-2 CBL-20 and in the series on HIV-1 RF were 920 nM, 320 nM and 140 nM, respectively. Besides, the solubility entry in “Solubility in solvents” (in alkaline water) is recorded as “slightly soluble”; in the series “Solubility in solvents” (in benzene) it was “insoluble”; in the series “Solubility in solvents” (in chloroform) it was “insoluble”; in “Solubility in solvents” (in dimethyl sulfoxide), “soluble”; in the series “Solubility in solvents” (in dimethylformamide), “soluble”; in “Solubility in solvents” (in ethanol), “soluble”. Also, the solubility entry in the series “Solubility in solvents” (in ethyl acetate) is listed as “insoluble”; in the series “Solubility in solvents” (in methanol) it was “soluble”; in “Solubility in solvents” (in n-hexane), “insoluble”; in the series “Solubility in solvents” (in petroleum ether), “insoluble”; in “Solubility in solvents” (in water) it was “insoluble”. Further, the CC50 at 72 h in series [2] was > 100 µg/mL. In addition, the minimum inhibitory concentration (MIC) against S. typhi 901 is >100 µg/mL. Besides, the cytotoxicity entry in the series on CEM-SS cells [3] is given as “very weak cytotoxicity”. In addition, the CC50 in series [4] fell in the range of 26000 to 46000 nM.

For the compound `O=c1[nH]cnc2c1ncn2[C@H]1CC[C@@H](CO)O1` [ddI, 2',3'-Dideoxyinosine], in the series with CEM-SS cells [5], the cytotoxicity entry was “very weak cytotoxicity”. In series [6], the IC50 lay in the range of 1000 to 2000 nM.
